# Article PMC6152622, “Synthesis and Evaluation of Phenylxanthine Derivatives as Potential Dual A2AR Antagonists/MAO-B Inhibitors for Parkinson’s Disease” (Molecules : A Journal of Synthetic Chemistry and Natural …, 2017)
# Like-named read-outs stand apart in the source and are kept apart here.
# Key:
# recombinant human MAO-B = biological target: T1, recombinant human MAO-B (Homo sapiens, UniProt P27338); test: MAO-B inhibition, MAO-Glo commercial kit; type: biochemical; details: Ki converted from IC50 by Cheng-Prusoff; duplicate, mean ± SD; read-out: Ki hMAO-B
# T1 construct: purchased Sigma-Aldrich Corporation
# T1 sequence (P27338 1-520): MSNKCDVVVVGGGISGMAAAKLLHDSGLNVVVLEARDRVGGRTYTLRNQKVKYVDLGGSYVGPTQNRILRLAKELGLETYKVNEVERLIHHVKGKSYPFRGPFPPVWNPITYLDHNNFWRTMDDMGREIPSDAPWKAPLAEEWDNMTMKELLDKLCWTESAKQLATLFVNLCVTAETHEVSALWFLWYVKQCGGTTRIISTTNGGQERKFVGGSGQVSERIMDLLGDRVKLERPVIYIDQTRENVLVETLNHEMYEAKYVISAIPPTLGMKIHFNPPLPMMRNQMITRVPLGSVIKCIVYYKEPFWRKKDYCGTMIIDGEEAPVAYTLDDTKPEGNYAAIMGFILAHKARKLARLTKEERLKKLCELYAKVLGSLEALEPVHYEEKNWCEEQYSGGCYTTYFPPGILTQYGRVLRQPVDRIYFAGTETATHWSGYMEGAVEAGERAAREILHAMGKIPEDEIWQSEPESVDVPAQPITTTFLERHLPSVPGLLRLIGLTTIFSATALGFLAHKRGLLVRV
# Experimental: Inhibitory potency on MAO-B enzyme from recombinant human MAO-B were carried out by a fluorometric method with a commercial kit (Promega, MAO-Glo Assay). The MAO enzyme incubation experiments were carried with a MAO-B substrate, methyl (S)-2-(6-(2-aminoethoxy) benzo[d]thiazol-2-yl)-4,5-dihydrothiazole-4-carboxylate, which was converted to luciferin methyl ester. Then the “Luciferin Detection Reagent” was added to change the methyl ester derivative to luciferin, stop the MAO-B reaction, and simultaneously produce light. The intensity of light is directly in proportion to MAO-B activity. The assay was carried in a 96-well black opaque microplate in duplicate. The reaction mixture was composed of 12.5 μL of MAO-B substrate (a final concentration of 4 μM), 25 μL of human MAO-B (1 μg of protein/well), and 12.5 μL of test compounds for each well. After 1 h of incubation at 37 °C, each well added 50 μL of “Luciferin Detection Reagent”, and incubated an additional 20 min. the luminescent signal of microplate was measured by a luminometer. The signal from reaction of MAO-B enzyme and substrate without inhibitors accounted as the positive control, whereas the signal from reaction of MAO-B enzyme and inhibitors in the absence of substrate accounted as the negative control. Compound concentrations of 1 μM were tested at first. IC50 values (the half maximal inhibitory concentration) were performed from concentration–response curves, plotted by the GraphPad Prism software. All experiments were performed in duplicate, and data are expressed as mean ± SD.
# human A2AR = biological target: T2, human A2AR (Homo sapiens, UniProt P29274); test: Radioligand binding assay ([3H]ZM241385 competition) on membranes of HEK-293 cells transfected with human A2AR; details: [3H]ZM241385 displacement; Ki converted from IC50 by Cheng-Prusoff; duplicate, mean ± SD; read-out: Ki hA2AR
# T2 construct: expressed in transfected cells
# Experimental: The binding affinity of test compounds was determined using radioligand binding assays. Human A2AR cDNA was stably transfected into HEK-293 cells. Membranes from the transfected cell were used in the interactive capacity of each compound toward the A2AR. Competition binding assay experiments by incubating membranes of 10 μg protein with 2 nM [3H]ZM241385 were carried out, with interval concentrations ranging from 0.1 nM to 100 μM of test compounds in 96-well filter plates at 4 °C for 90 min. After incubation experiments, free and bound radioligands were split by filtering and washing. Last, filter-bound radioactivity was counted after addition of 30 μL/well of scintillation solution. Nonspecific binding was measured in the presence of 100 μM ZM241385. The experiments were carried in duplicate. IC50 values were determined using a nonlinear regression curve fitting by the program GraphPad Prism. The affinities of compounds were calculated by Ki value which was from the IC50 values according as the Cheng−Prusoff equation [19].
# [1] = Plasma pharmacokinetics after i.p. administration; type: in vivo, Sprague-Dawley rats; details: 50 mg/kg, rats
# Description: (§1) Sprague-Dawley rats (200 ± 20 g) were obtained from the Laboratory Animal Center of Wenzhou Medical University (Wenzhou, China) to study the pharmacokinetics and tissue distribution studies (TDS) of PX-D-P6 and PX-E-P8 following intraperitoneal injection (i.p.) administration. The experiment procedures and protocols were approved the Animal Care and Use Committee of Wenzhou Medical College and complied with the Guide for the Care and Use of Laboratory Animals. The corresponding ethical approval code was WMU20161025.
# (§2) The chosen compounds dissolved in suspension formulation (2 % Tween 80–saline) were administered to each rat at a dose of 50 mg/kg. Blood samples (0.3 mL) were collected from the caudal vein into 1.5 mL tapered plastic centrifuge tubes (pretreated with K2EDTA as an anticoagulant) at pre-dose, 0.08, 0.16, 0.25, 0.5, 1, 2, 4, 8, 12, 24 h after i.p. administration. Separately, blood and brain samples were collected at pre-dose and 1 h for TDS. Blood samples were immediately centrifuged at 3000 g for 10 min for isolation of the plasma. Brain samples were homogenized in phosphate buffer saline. 100 μL plasma or 200 μL brain sample was precipitated with addition of 400 μL acetonitrile and vortex mixed for 1 min and centrifuged at 10,000 g for 10 min. Finally, 2μL supernatant was injected into UPLC/MS system. Calibration standards samples were prepared with blank rat plasma or brain homogenates. Plasma pharmacokinetic parameters were analyzed by DAS (Drug and Statistics) software (Version 2, Wenzhou Medical University, Wenzhou, China).
# [2] = Plasma and brain distribution at 1 h after i.p. administration; type: in vivo; details: Sprague-Dawley, rat, ip, rats, 1 h after i.p. 50 mg/kg; for concentration at 1 h: n = 6
# Description: as §1, §2
# [3] = test system: haloperidol-induced catalepsy in rats; test: Haloperidol-induced catalepsy, bar test; type: in vivo; details: i.p.
# Experimental: Catalepsy was measured using a thin metal bar test at 9.0 cm height. In this test, each rat was injected intraperitoneally by haloperidol (1.5 mg/kg). Before i.p. administration of vehicle (2% Tween 80–saline), PX-D-P6 and PX-E-P8 (5, 15, 50 mg/kg), at time 0 min, we tested all rats for successful induction of catalepsy. The length of time (descent latency) it persisted in hanging onto the metal bar was measured for a period of up to 300 s (maximum score). After this period, the rat was gently removed from the bar. The high bar test was performed 20 min after the injection of compound. Descent latencies have been presented as median and interquartile ranges. Differences between medians were analyzed by Kruskal-Wallis test, followed by Bonferroni's test.
# [4] = Sprague-Dawley, rat, plasma, ip, n = 6
# T2 sequence (P29274 whole entry): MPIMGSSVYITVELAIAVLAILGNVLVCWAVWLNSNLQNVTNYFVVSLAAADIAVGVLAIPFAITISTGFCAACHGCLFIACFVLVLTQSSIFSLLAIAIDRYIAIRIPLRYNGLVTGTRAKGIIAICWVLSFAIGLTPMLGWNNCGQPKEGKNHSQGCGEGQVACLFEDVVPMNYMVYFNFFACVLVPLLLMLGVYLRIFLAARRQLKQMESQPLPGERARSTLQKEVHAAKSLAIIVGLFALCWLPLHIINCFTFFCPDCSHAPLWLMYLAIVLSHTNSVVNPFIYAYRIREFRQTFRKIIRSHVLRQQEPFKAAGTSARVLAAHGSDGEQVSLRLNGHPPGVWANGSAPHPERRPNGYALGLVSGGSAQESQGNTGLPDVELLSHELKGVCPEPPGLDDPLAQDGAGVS
Structure (SMILES),Ki (recombinant human MAO-B) [nM],Ki (human A2AR) [nM],melting point [°C],other results
"CCn1c(=O)c2c(nc(/C=C/c3ccc(OC)c(OC)c3)n2C)n(CC)c1=O [Istradefylline, reference compound]",> 10000,–,–,–
"COc1ccc(C(=O)Nc2cccc(-c3nc4c([nH]3)c(=O)n(C)c(=O)n4C)c2)cc1OC [PX-D-M5, N-(3-(1,3-Dimethyl-2,6-dioxo-2,3,6,7-tetrahydro-1H-purin-8-yl)phenyl)-3,4-dimethoxybenzamide]",2360 ± 310,4990 ± 750,> 300,–
"Cn1c(=O)c2c(nc(-c3cccc(NC(=O)c4cccc(Cl)c4)c3)n2C)n(C)c1=O [PX-D-M9, 3-Chloro-N-(3-(1,3,7-trimethyl-2,6-dioxo-2,3,6,7-tetrahydro-1H-purin-8-yl)phenyl)benzamide]",760 ± 110,2440 ± 210,> 300,–
"COc1ccc(C(=O)Nc2cccc(-c3nc4c(c(=O)n(C)c(=O)n4C)n3C)c2)cc1OC [PX-D-M10, 3,4-Dimethoxy-N-(3-(1,3,7-trimethyl-2,6-dioxo-2,3,6,7-tetrahydro-1H-purin-8-yl)phenyl)benzamide]",2540 ± 310,3590 ± 360,> 300,–
"Cn1c(=O)c2[nH]c(-c3cccc(NC(=O)c4cccc(Cl)c4)c3)nc2n(C)c1=O [PX-D-M 4, 3-Chloro-N-(3-(1,3-dimethyl-2,6-dioxo-2,3,6,7-tetrahydro-1H-purin-8-yl)phenyl)benzamide]",1270 ± 180,3610 ± 410,> 300,–
"Cn1c(=O)c2[nH]c(-c3ccc(NC(=O)c4cccc(Cl)c4)cc3)nc2n(C)c1=O [PX-D-P4, 3-Chloro-N-(4-(1,3-dimethyl-2,6-dioxo-2,3,6,7-tetrahydro-1H-purin-8-yl)phenyl)benzamide]",250 ± 50,1520 ± 160,> 300,–
"COc1ccc(C(=O)Nc2ccc(-c3nc4c([nH]3)c(=O)n(C)c(=O)n4C)cc2)cc1OC [PX-D-P5, N-(4-(1,3-Dimethyl-2,6-dioxo-2,3,6,7-tetrahydro-1H-purin-8-yl)phenyl)-3,4-dimethoxybenzamide]",1920 ± 250,4270 ± 510,> 300,–
"Cn1c(=O)c2c(nc(-c3ccc(NC(=O)c4cccc(Cl)c4)cc3)n2C)n(C)c1=O [PX-D-P9, 3-Chloro-N-(4-(1,3,7-trimethyl-2,6-dioxo-2,3,6,7-tetrahydro-1H-purin-8-yl)phenyl)benzamide]",1510 ± 190,270 ± 80,> 300,–
"COc1ccc(C(=O)Nc2ccc(-c3nc4c(c(=O)n(C)c(=O)n4C)n3C)cc2)cc1OC [PX-D-P10, 3,4-Dimethoxy-N-(4-(1,3,7-trimethyl-2,6-dioxo-2,3,6,7-tetrahydro-1H-purin-8-yl)phenyl)benzamide]",2970 ± 370,1340 ± 160,> 300,–
COc1ccc(/C=C/C(=O)Nc2cccc(-c3nc4c([nH]3)c(=O)n(C)c(=O)n4C)c2)cc1OC [PX-E-M5],–,–,> 300,–
COc1ccc(/C=C/C(=O)Nc2cccc(-c3nc4c(c(=O)n(C)c(=O)n4C)n3C)c2)cc1OC [PX-E-M10],–,–,> 300,–
"Cn1c(=O)c2[nH]c(-c3ccc(NC(=O)/C=C/c4cccc(Cl)c4)cc3)nc2n(C)c1=O [PX-E-P4, (E)-3-(3-Chlorophenyl)-N-(4-(1,3-dimethyl-2,6-dioxo-2,3,6,7-tetrahydro-1H-purin-8-yl)phenyl)acrylamide]",1750 ± 150,6430 ± 980,> 300,–
"Cn1c(=O)c2c(nc(-c3ccc(NC(=O)/C=C/c4cccc(Cl)c4)cc3)n2C)n(C)c1=O [PX-E-P8, (E)-3-(3-Chlorophenyl)-N-(4-(1,3,7-trimethyl-2,6-dioxo-2,3,6,7-tetrahydro-1H-purin-8-yl)phenyl)acrylamide]",630 ± 110,850 ± 110,> 300,"Tmax ([1]; Sprague-Dawley, rat, plasma, ip, n = 6, read-out: Tmax): 28.8 min; AUC(0-t) [1, 4]: 15600 ± 1540 ng·h/mL; Cmax [1, 4]: 1640 ± 436 ng/mL; half-life [1, 4]: 196 ± 23.4 min; CL ([1]; n = 6): 171.3 ± 36.5 mL/min/kg; Tmax ([1]; n = 6): 27 ± 12.6 min; Kp at 1 h ([2]; brain and plasma, read-out: B/P Ratio (brain/plasma ratio)): 0.97; concentration at 1 h ([2]; brain, read-out: Brain concentration): 887 ± 113 ng/g; concentration at 1 h ([2]; plasma, read-out: Plasma concentration): 915 ± 231 ng/mL; Anti-catalepsy ability ([3]; 50 mg/kg (high dose)): significant anti-catalepsy ability; Effect on haloperidol-induced catalepsy ([3]; different doses (5, 15 and 50 mg/kg), haloperidol 1.5 mg/kg): significant reduction in catalepsy; Anti-catalepsy effect ([3]; low dose): slight effects"
